Results taken from patent publication US20260325533A1, “CDK INHIBITOR COMPOUNDS” (ALEKSIA THERAPEUTICS, INC., priority 2023, published 2026).
Like-named read-outs stand apart in the source and are kept apart here.

What was measured:
Type in all cases: biochemical
[1] = molecular target: CDK2/CCNE1 (Homo sapiens, UniProt P24941); assay: CDK2 homogeneous time-resolved fluorescence (HTRF) kinase assay; settings: CDK2/CCNE
Procedure, shortened: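 TR-FRET read-out (665 nm, or 665/615 ratio) of Eu-antibody detection of phospho-4E-BP1 (Thr37/46) ULight peptide. Enzyme 3 nM, ATP 1 mM, peptide 50 nM, 1% DMSO; 60 min reaction at 23 °C after 20 min compound preincubation. IC50 from 11-point half-log titrations, top typically 10 μM.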

[2] = molecular target: CDK1/CCNB1 (Homo sapiens, UniProt P06493); assay: CDK1 homogeneous time-resolved fluorescence (HTRF) kinase assay; settings: CDK1/CCNB
Procedure, shortened: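 Kinase activity is measured as Lance signal (665 nm, or 665/615 nm ratio) from europium-labelled anti-phospho-Thr37/46 antibody binding ULight-4E-BP1 peptide. Reactions contain 0.5 nM enzyme, 1 mM ATP, 1% DMSO and run 60 min at 23 °C before EDTA quench.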

[3] = molecular target: CDK4/CCND3 (Homo sapiens, UniProt P11802); assay: CDK4 homogeneous time-resolved fluorescence (HTRF) kinase assay; settings: CDK4/CCND
Procedure, shortened: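 IC50s derive from Lance 665 nm or 665/615 nm signals in 11-point, half-log dose series (top 10 μM, 1% DMSO). The enzyme, 1.5 nM CDK4/CCND3, phosphorylates 50 nM ULight-4E-BP1 peptide with 1 mM ATP over 60 min at 23 °C.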

[4] = molecular target: CDK6/CCND1 (Homo sapiens, UniProt Q00534); assay: CDK6 homogeneous time-resolved fluorescence (HTRF) kinase assay; settings: CDK6/CCND
Procedure, shortened: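 Assay conditions: HEPES buffer containing 10 mM MgCl2, 1 mM EGTA, 2 mM DTT, 0.01% Tween 20; 1 nM CDK6/CCND1, 50 nM peptide substrate, 1 mM ATP. Detection after 60 min reaction used 2 nM europium antibody with 340 nm excitation. Potency fitted from half-log series, 11 points.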

[5] = >250 nM marked x, read-out: CDK1/CCNB IC50 >250 nM
[6] = >250 nM marked x, read-out: CDK4/CCND IC50 >250 nM
[7] = >250 nM marked x, read-out: CDK6/CCND IC50 >250 nM
[8] = <25 nM, read-out: CDK2/CCNE IC50, <25 nM
[9] = >250 nM, read-out: CDK1/CCNB IC50 >250 nM
[10] = 25-250 nM, read-out: CDK4/CCND IC50, 25-250 nM
[11] = 25-250 nM, 1 mM ATP, read-out: CDK6/CCND IC50, 25-250 nM
[12] = x = IC50 25-250 nM, read-out: CDK2/CCNE IC50 (25-250 nM)
[13] = x = IC50 >250 nM, read-out: CDK1/CCNB IC50 (>250 nM column)
[14] = x = IC50 >250 nM, read-out: CDK4/CCND IC50 (>250 nM column)
[15] = x = IC50 >250 nM, read-out: CDK6/CCND IC50 (>250 nM column)
[16] = x = IC50 <25 nM, read-out: CDK2/CCNE IC50 (<25 nM)
[17] = x = IC50 25-250 nM, read-out: CDK6/CCND IC50 (25-250 nM)
[18] = <25 nM, read-out: CDK2/CCNE IC50 <25 nM
[19] = 25-250 nM marked x, read-out: CDK1/CCNB IC50 25-250 nM
[20] = <25 nM, read-out: CDK4/CCND IC50 <25 nM
[21] = >250 nM, read-out: CDK4/CCND IC50, >250 nM
[22] = >250 nM, 1 mM ATP, read-out: CDK6/CCND IC50, >250 nM
[23] = 25-250 nM, read-out: CDK2/CCNE IC50, 25-250 nM
[24] = <25 nM, read-out: CDK6/CCND IC50 <25 nM

Sequence of CDK6/CCND1 (Q00534 whole entry): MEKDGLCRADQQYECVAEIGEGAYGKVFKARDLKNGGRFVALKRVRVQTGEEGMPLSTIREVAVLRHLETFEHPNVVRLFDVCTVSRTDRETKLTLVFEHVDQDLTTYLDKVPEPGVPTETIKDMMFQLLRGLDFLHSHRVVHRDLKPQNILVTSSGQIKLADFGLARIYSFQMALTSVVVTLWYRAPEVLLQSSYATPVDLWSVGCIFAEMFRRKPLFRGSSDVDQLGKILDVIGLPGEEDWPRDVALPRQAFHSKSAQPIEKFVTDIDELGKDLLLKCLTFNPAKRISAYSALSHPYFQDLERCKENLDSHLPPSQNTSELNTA
Sequence of CDK6/CCND1 (P24385 whole entry partner): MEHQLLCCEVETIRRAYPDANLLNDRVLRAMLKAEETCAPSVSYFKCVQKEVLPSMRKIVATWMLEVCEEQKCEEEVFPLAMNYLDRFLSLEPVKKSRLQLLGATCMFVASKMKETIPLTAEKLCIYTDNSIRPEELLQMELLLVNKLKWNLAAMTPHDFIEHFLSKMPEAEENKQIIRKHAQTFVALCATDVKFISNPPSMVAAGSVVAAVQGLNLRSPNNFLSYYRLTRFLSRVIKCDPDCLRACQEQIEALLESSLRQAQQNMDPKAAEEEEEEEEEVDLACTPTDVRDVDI
Sequence of CDK1/CCNB1 (P06493 whole entry): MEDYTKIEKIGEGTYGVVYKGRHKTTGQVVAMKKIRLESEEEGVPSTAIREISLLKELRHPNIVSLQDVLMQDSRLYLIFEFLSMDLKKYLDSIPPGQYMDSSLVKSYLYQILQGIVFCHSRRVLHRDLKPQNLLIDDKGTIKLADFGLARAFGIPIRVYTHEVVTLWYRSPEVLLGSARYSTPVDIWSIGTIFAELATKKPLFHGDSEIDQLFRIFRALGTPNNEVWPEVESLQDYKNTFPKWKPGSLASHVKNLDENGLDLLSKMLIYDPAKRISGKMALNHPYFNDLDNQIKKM
Sequence of CDK1/CCNB1 (P14635 whole entry partner): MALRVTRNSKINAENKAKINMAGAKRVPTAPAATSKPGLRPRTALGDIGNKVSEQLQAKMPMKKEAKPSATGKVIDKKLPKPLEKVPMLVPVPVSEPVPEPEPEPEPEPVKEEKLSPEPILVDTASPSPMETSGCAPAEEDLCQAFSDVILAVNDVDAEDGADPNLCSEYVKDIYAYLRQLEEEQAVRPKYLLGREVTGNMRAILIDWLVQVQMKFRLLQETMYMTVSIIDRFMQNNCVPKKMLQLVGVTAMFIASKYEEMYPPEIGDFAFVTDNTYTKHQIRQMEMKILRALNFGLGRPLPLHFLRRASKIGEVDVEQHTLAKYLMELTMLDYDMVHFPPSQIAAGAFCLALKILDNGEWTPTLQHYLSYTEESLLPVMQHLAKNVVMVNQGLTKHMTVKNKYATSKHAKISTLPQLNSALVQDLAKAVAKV
Sequence of CDK4/CCND3 (P11802 whole entry): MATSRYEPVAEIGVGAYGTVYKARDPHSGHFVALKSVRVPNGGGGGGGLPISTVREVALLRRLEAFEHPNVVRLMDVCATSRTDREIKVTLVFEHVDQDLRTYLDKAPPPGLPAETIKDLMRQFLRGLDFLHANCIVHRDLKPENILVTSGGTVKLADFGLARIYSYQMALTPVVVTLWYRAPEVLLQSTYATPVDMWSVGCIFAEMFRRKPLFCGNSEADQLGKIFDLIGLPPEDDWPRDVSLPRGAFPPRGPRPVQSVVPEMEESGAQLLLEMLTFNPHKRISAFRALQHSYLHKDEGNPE
Sequence of CDK4/CCND3 (P30281 whole entry partner): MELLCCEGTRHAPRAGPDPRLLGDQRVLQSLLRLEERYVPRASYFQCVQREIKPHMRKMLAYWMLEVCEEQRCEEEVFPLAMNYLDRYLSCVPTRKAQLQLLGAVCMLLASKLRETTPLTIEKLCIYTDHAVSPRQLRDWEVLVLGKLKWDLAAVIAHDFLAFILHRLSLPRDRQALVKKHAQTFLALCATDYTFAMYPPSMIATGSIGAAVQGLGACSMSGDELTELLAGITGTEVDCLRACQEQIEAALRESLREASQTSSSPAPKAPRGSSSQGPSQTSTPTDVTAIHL

COc1c(-c2nccc3cnc(Nc4ccc(S(C)(=O)=O)cc4)cc23)ccc2[nH]ncc12 [Ex 220, 5-(4-methoxy-1H-indazol-5-yl)-N-(4-(methylsulfonyl)phenyl)-2,6-naphthyridin-3-amine]
IC50 ([1]; 25-250 nM marked x, read-out: CDK2/CCNE IC50 25-250 nM): 25 to 250 nM | IC50 [2, 5]: > 250 nM | IC50 [3, 6]: > 250 nM | IC50 [4, 7]: > 250 nM

Cc1cccc(NS(=O)(=O)c2ccc(Nc3cc4c(-c5ccc6c(cnn6CC(C)(C)O)c5C)nccc4cn3)cc2)n1 [Ex 817, 4-((5-(1-(2-hydroxy-2-methylpropyl)-4-methyl-1H-indazol-5-yl)-2,6-naphthyridin-3-yl)amino)-N-(6-methylpyridin-2-yl)benzenesulfonamide]
IC50 [1, 8]: < 25 nM | IC50 [2, 9]: > 250 nM | IC50 [3, 10]: 25 to 250 nM | IC50 [4, 11]: 25 to 250 nM

COC(=O)CCc1ccc(C#Cc2nccc3cnc(Nc4ccc(S(C)(=O)=O)cc4)cc23)cc1 [Example 493, methyl 3-(4-((7-((4-(methylsulfonyl)phenyl)amino)-2,6-naphthyridin-1-yl)ethynyl)phenyl)propanoate]
IC50 [1, 12]: 25 to 250 nM | IC50 [2, 13]: > 250 nM | IC50 [3, 14]: > 250 nM | IC50 [4, 15]: > 250 nM

Cc1c(-c2nccc3cnc(Nc4ccc(S(C)(=O)=O)cc4)cc23)ccc2c1cnn2CC#N [Ex 656, 2-(4-methyl-5-(7-((4-(methylsulfonyl)phenyl)amino)-2,6-naphthyridin-1-yl)-1H-indazol-1-yl)acetonitrile]
IC50 [1, 12]: 25 to 250 nM | IC50 [2, 13]: > 250 nM | IC50 [3, 14]: > 250 nM | IC50 [4, 15]: > 250 nM

CS(=O)(=O)c1ccc(Nc2cc3c(C#Cc4cc(Cl)ncc4N)nccc3cn2)cc1 [Ex 569, 5-((5-amino-2-chloropyridin-4-yl)ethynyl)-N-(4-(methylsulfonyl)phenyl)-2,6-naphthyridin-3-amine]
IC50 [1, 12]: 25 to 250 nM | IC50 [2, 13]: > 250 nM | IC50 [3, 14]: > 250 nM | IC50 [4, 15]: > 250 nM

CS(=O)(=O)c1ccc(Nc2cc3c(C#CC4CCN(Cc5cn[nH]c5)CC4)nccc3cn2)cc1 [Example 603, 5-((1-((1H-pyrazol-4-yl)methyl)piperidin-4-yl)ethynyl)-N-(4-(methylsulfonyl)phenyl)-2,6-naphthyridin-3-amine]
IC50 [1, 16]: < 25 nM | IC50 [2, 13]: > 250 nM | IC50 [3, 14]: > 250 nM | IC50 [4, 17]: 25 to 250 nM

CC(C)c1nccc2cnc(NC3CCN(S(C)(=O)=O)CC3)cc12 [Example 6, 5-isopropyl-N-(1-(methylsulfonyl)piperidin-4-yl)-2,6-naphthyridin-3-amine]
IC50 [1, 18]: < 25 nM | IC50 [2, 19]: 25 to 250 nM | IC50 [3, 20]: < 25 nM | IC50 ([4]; 25-250 nM marked x, read-out: CDK6/CCND IC50 25-250 nM): 25 to 250 nM

Cc1c(-c2nccc3cnc(Nc4ccc(S(=O)(=O)Nc5nccc(N6CCOCC6)n5)cc4)cc23)ccc2c1cnn2CC(O)(C(F)(F)F)C(F)(F)F [Ex 769, 4-((5-(4-methyl-1-(3,3,3-trifluoro-2-hydroxy-2-(trifluoromethyl)propyl)-1H-indazol-5-yl)-2,6-naphthyridin-3-yl)amino)-N-(4-morpholinopyrimidin-2-yl)benzenesulfonamide]
IC50 [1, 8]: < 25 nM | IC50 [2, 9]: > 250 nM | IC50 [3, 21]: > 250 nM | IC50 [4, 22]: > 250 nM

Cc1c(-c2nccc3cnc(Nc4ccc(S(C)(=O)=O)cn4)cc23)ccc2c1cnn2CC(C)(C)O [Ex 848, 2-methyl-1-(4-methyl-5-(7-((5-(methylsulfonyl)pyridin-2-yl)amino)-2,6-naphthyridin-1-yl)-1H-indazol-1-yl)propan-2-ol]
IC50 [1, 8]: < 25 nM | IC50 [2, 9]: > 250 nM | IC50 [3, 10]: 25 to 250 nM | IC50 [4, 11]: 25 to 250 nM

Cc1cc(S(C)(=O)=O)ccc1Nc1cc2c(C#Cc3cc4c(cc3F)C(C)(C)C(=O)N4)nccc2cn1 [Ex 342, 5-fluoro-3,3-dimethyl-6-((7-((2-methyl-4-(methylsulfonyl)phenyl)amino)-2,6-naphthyridin-1-yl)ethynyl)indolin-2-one]
IC50 [1, 18]: < 25 nM | IC50 [2, 5]: > 250 nM | IC50 [3, 6]: > 250 nM | IC50 [4, 7]: > 250 nM

CS(=O)(=O)c1ccc(Nc2cc3c(C#Cc4cc(C(=O)O)c(N)cc4F)nccc3cn2)cc1 [Ex 913, 2-amino-4-fluoro-5-((7-((4-(methylsulfonyl)phenyl)amino)-2,6-naphthyridin-1-yl)ethynyl)benzoic acid]
IC50 [1, 23]: 25 to 250 nM | IC50 [2, 9]: > 250 nM | IC50 [3, 21]: > 250 nM | IC50 [4, 22]: > 250 nM

CS(=O)(=O)c1ccc(Nc2cc3c(C#Cc4ccc(N5CCOCC5)nc4)nccc3cn2)cc1 [Ex 566, N-(4-(methylsulfonyl)phenyl)-5-((6-morpholinopyridin-3-yl)ethynyl)-2,6-naphthyridin-3-amine]
IC50 [1, 12]: 25 to 250 nM | IC50 [2, 13]: > 250 nM | IC50 [3, 14]: > 250 nM | IC50 [4, 15]: > 250 nM

O=c1ccc(C#Cc2nccc3cnc(Nc4cnc(O)c(N5CCNCC5)c4)cc23)n[nH]1 [Ex 886, 6-((7-((6-hydroxy-5-(piperazin-1-yl)pyridin-3-yl)amino)-2,6-naphthyridin-1-yl)ethynyl)pyridazin-3(2H)-one]
IC50 [1, 23]: 25 to 250 nM | IC50 [2, 9]: > 250 nM | IC50 [3, 21]: > 250 nM | IC50 [4, 22]: > 250 nM

CS(=O)(=O)N1CCC(Nc2cc3c(C4=CCCCC4)nccc3cn2)CC1 [Ex 102, 5-(cyclohex-1-en-1-yl)-N-(1-(methylsulfonyl)piperidin-4-yl)-2,6-naphthyridin-3-amine]
IC50 [1, 18]: < 25 nM | IC50 [2, 19]: 25 to 250 nM | IC50 [3, 20]: < 25 nM | IC50 [4, 24]: < 25 nM

N=S(=O)(c1ccc(Nc2cc3c(C#Cc4ccc5c(c4)NC(=O)C54CCC4)nccc3cn2)cc1)C1CCC1 (single isomer, unassigned) [Ex 363, 6'-((7-((4-(cyclobutanesulfonimidoyl)phenyl)amino)-2,6-naphthyridin-1-yl)ethynyl)spiro[cyclobutane-1,3'-indolin]-2'-one]
IC50 [1, 16]: < 25 nM | IC50 ([2]; x = IC50 25-250 nM, read-out: CDK1/CCNB IC50 (25-250 nM)): 25 to 250 nM | IC50 ([3]; x = IC50 25-250 nM, read-out: CDK4/CCND IC50 (25-250 nM)): 25 to 250 nM | IC50 [4, 17]: 25 to 250 nM

Cc1cc(C#Cc2nccc3cnc(Nc4ccc(S(C)(=O)=O)cc4)cc23)n[nH]1 [Ex 582, 5-((5-methyl-1H-pyrazol-3-yl)ethynyl)-N-(4-(methylsulfonyl)phenyl)-2,6-naphthyridin-3-amine]
IC50 [1, 12]: 25 to 250 nM | IC50 [2, 13]: > 250 nM | IC50 [3, 14]: > 250 nM | IC50 [4, 15]: > 250 nM

Oc1cccc(Nc2cc3c(C4=CCCCC4)nccc3cn2)c1 [Ex 100, 3-((5-(cyclohex-1-en-1-yl)-2,6-naphthyridin-3-yl)amino)phenol]
IC50 [1, 18]: < 25 nM | IC50 [2, 5]: > 250 nM | IC50 ([3]; 25-250 nM marked x, read-out: CDK4/CCND IC50 25-250 nM): 25 to 250 nM | IC50 [4, 24]: < 25 nM

CN1CCN(C(=O)[C@H]2CC[C@H](c3nccc4cnc(Nc5ccc(S(C)(=O)=O)cc5)cc43)CC2)CC1 [Ex 227, (4-methylpiperazin-1-yl)((1r,4r)-4-(7-((4-(methylsulfonyl)phenyl)amino)-2,6-naphthyridin-1-yl)cyclohexyl)methanone]
IC50 ([1]; >250 nM marked x, read-out: CDK2/CCNE IC50 >250 nM): > 250 nM | IC50 [2, 5]: > 250 nM | IC50 [3, 6]: > 250 nM | IC50 [4, 7]: > 250 nM
